Assays:
Assay in all cases: relative viability (nuclei count vs DMSO), 5 days (fraction); higher = more cells survive
NCI-H1395 = system: NCI-H1395
In short: (§1)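 Relative viability is defined as nuclei in treated wells over nuclei in vehicle wells. Duplicate plates were run and medians reported. Lung cancer cell lines in 1536-well plates were dosed by pin tool one day after seeding, with one drug or with a fixed anchor-drug dose plus five library-drug doses (not always all listed) in √10 steps, and nuclei were counted after 5 days.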

PC-14 = system: PC-14
In short: as §1

NCI-H441 = system: NCI-H441
In short: as §1

NCI-H1975 = system: NCI-H1975
In short: as §1

A-427 = system: A-427
In short: as §1

NCI-H520 = system: NCI-H520
In short: as §1

NCI-H838 = system: NCI-H838
In short: as §1

LXF-289 = system: LXF-289
In short: as §1

RERF-LC-KJ = system: RERF-LC-KJ
In short: as §1

H3255 = system: H3255
In short: as §1

NCI-H2405 = system: NCI-H2405
In short: as §1

SK-MES-1 = system: SK-MES-1
In short: as §1

NCI-H2170 = system: NCI-H2170
In short: as §1

NCI-H2347 = system: NCI-H2347
In short: as §1

HCC-366 = system: HCC-366
In short: as §1

HARA = system: HARA
In short: as §1

NCI-H1915 = system: NCI-H1915
In short: as §1

LCLC-97TM1 = system: LCLC-97TM1
In short: as §1

NCI-H1755 = system: NCI-H1755
In short: as §1

NCI-H3122 = system: NCI-H3122
In short: as §1

NCI-H2228 = system: NCI-H2228
In short: as §1

NCI-H1993 = system: NCI-H1993
In short: as §1

Work on `Oc1nc(-c2ccc(C(F)(F)F)cc2)nc2c1CSCC2` [XAV939] + Cc1nc(Nc2ncc(C(=O)Nc3c(C)cccc3Cl)s2)cc(N2CCN(CCO)CC2)n1 [Dasatinib] (partner 0.075 µM) yielded a relative viability (NCI-H1395; first compound 0.08 µM) of 0.4, a relative viability (NCI-H1395; first compound 0.253 µM) of 0.378 and a relative viability (NCI-H1395; first compound 0.8 µM) of 0.381. The relative viability (NCI-H1395; first compound 2.53 µM) was 0.458, the relative viability (PC-14; first compound 0.08 µM) was 0.288 and the relative viability (PC-14; first compound 0.253 µM) was 0.252. The relative viability (PC-14; first compound 0.8 µM) was 0.204, the relative viability (PC-14; first compound 2.53 µM) was 0.148 and the relative viability (NCI-H441; first compound 0.08 µM) was 0.602. It also gave a relative viability (NCI-H441; first compound 0.253 µM) of 0.66, a relative viability (NCI-H441; first compound 0.8 µM) of 0.779 and a relative viability (NCI-H441; first compound 2.53 µM) of 0.536. For the same compound, the relative viability (NCI-H1975; first compound 0.08 µM) was 0.305, the relative viability (NCI-H1975; first compound 0.253 µM) was 0.264 and the relative viability (NCI-H1975; first compound 0.8 µM) was 0.286. The relative viability (NCI-H1975; first compound 2.53 µM) was 0.234, the relative viability (A-427; first compound 0.08 µM) was 0.838 and the relative viability (A-427; first compound 0.253 µM) was 0.677. The relative viability (A-427; first compound 0.8 µM) was 0.667, the relative viability (A-427; first compound 2.53 µM) was 0.557 and the relative viability (NCI-H520; first compound 0.08 µM) was 0.179. For the same compound, the relative viability (NCI-H520; first compound 0.253 µM) was 0.17, the relative viability (NCI-H520; first compound 0.8 µM) was 0.152 and the relative viability (NCI-H520; first compound 2.53 µM) was 0.193. It also gave a relative viability (NCI-H838; first compound 0.08 µM) of 0.217, a relative viability (NCI-H838; first compound 0.253 µM) of 0.256 and a relative viability (NCI-H838; first compound 0.8 µM) of 0.284. It also gave a relative viability (NCI-H838; first compound 2.53 µM) of 0.212, a relative viability (LXF-289; first compound 0.08 µM) of 0.179 and a relative viability (LXF-289; first compound 0.253 µM) of 0.167. The relative viability (LXF-289; first compound 0.8 µM) was 0.178, the relative viability (LXF-289; first compound 2.53 µM) was 0.139 and the relative viability (RERF-LC-KJ; first compound 0.08 µM) was 0.77. The relative viability (RERF-LC-KJ; first compound 0.253 µM) was 0.643, the relative viability (RERF-LC-KJ; first compound 0.8 µM) was 0.55 and the relative viability (RERF-LC-KJ; first compound 2.53 µM) was 0.46. It also gave a relative viability (H3255; first compound 0.08 µM) of 0.341, a relative viability (H3255; first compound 0.253 µM) of 0.373 and a relative viability (H3255; first compound 0.8 µM) of 0.313. It also gave a relative viability (H3255; first compound 2.53 µM) of 0.448, a relative viability (NCI-H2405; first compound 0.08 µM) of 0.221 and a relative viability (NCI-H2405; first compound 0.253 µM) of 0.225. For the same compound, the relative viability (NCI-H2405; first compound 0.8 µM) was 0.214, the relative viability (NCI-H2405; first compound 2.53 µM) was 0.229 and the relative viability (SK-MES-1; first compound 0.08 µM) was 0.339. The relative viability (SK-MES-1; first compound 0.253 µM) was 0.344, the relative viability (SK-MES-1; first compound 0.8 µM) was 0.392 and the relative viability (SK-MES-1; first compound 2.53 µM) was 0.284. For the same compound, the relative viability (NCI-H2170; first compound 0.08 µM) was 0.505, the relative viability (NCI-H2170; first compound 0.253 µM) was 0.496 and the relative viability (NCI-H2170; first compound 0.8 µM) was 0.46. For the same compound, the relative viability (NCI-H2170; first compound 2.53 µM) was 0.394, the relative viability (NCI-H2347; first compound 0.08 µM) was 0.258 and the relative viability (NCI-H2347; first compound 2.53 µM) was 0.335. For the same compound, the relative viability (HCC-366; first compound 0.08 µM) was 0.598, the relative viability (HCC-366; first compound 0.253 µM) was 0.589 and the relative viability (HCC-366; first compound 0.8 µM) was 0.824. For the same compound, the relative viability (HCC-366; first compound 2.53 µM) was 0.598, the relative viability (HARA; first compound 0.08 µM) was 0.229 and the relative viability (HARA; first compound 0.253 µM) was 0.201. The relative viability (HARA; first compound 0.8 µM) was 0.275, the relative viability (HARA; first compound 2.53 µM) was 0.256 and the relative viability (NCI-H1915; first compound 0.08 µM) was 0.353. The relative viability (NCI-H1915; first compound 0.253 µM) was 0.214, the relative viability (NCI-H1915; first compound 0.8 µM) was 0.311 and the relative viability (NCI-H1915; first compound 2.53 µM) was 0.298. It also gave a relative viability (LCLC-97TM1; first compound 0.08 µM) of 0.981, a relative viability (LCLC-97TM1; first compound 0.253 µM) of 0.851 and a relative viability (LCLC-97TM1; first compound 0.8 µM) of 0.964. The relative viability (LCLC-97TM1; first compound 2.53 µM) was 0.977, the relative viability (NCI-H1755; first compound 0.08 µM) was 0.484 and the relative viability (NCI-H1755; first compound 0.253 µM) was 0.324. For the same compound, the relative viability (NCI-H1755; first compound 0.8 µM) was 0.424, the relative viability (NCI-H1755; first compound 2.53 µM) was 0.413 and the relative viability (NCI-H3122; first compound 0.08 µM) was 0.877. For the same compound, the relative viability (NCI-H3122; first compound 0.253 µM) was 0.786, the relative viability (NCI-H3122; first compound 0.8 µM) was 0.789 and the relative viability (NCI-H3122; first compound 2.53 µM) was 0.181. It also gave a relative viability (NCI-H2228; first compound 0.08 µM) of 0.496, a relative viability (NCI-H2228; first compound 0.253 µM) of 0.426 and a relative viability (NCI-H2228; first compound 0.8 µM) of 0.473. The relative viability (NCI-H2228; first compound 2.53 µM) was 0.382, the relative viability (NCI-H1993; first compound 0.08 µM) was 0.52 and the relative viability (NCI-H1993; first compound 0.253 µM) was 0.52. It also gave a relative viability (NCI-H1993; first compound 0.8 µM) of 0.557 and a relative viability (NCI-H1993; first compound 2.53 µM) of 0.535.
